Data: paper PMC12775124, “CUL4A-DDB1-DCAF10 is an N-recognin for N-terminally acetylated Src kinases” (Nature Communications, 2026)
Where two headings read alike, the source gives them in different places. Values belong to the substance of their own block, whether it stands above or below them.

Key:
[1] = test system: DCAF10; assay: Peptide pull-down with quantitative MS, HeLa lysate, DCAF10; format: binding, human (HeLa)
[2] = molecular target: T1, human NatA (Homo sapiens, UniProt P41227+Q9BXJ9); assay: In vitro Nt-acetylation assay (NatA, CPM fluorescence); format: biochemical
T1 construct: Human NatA (hNatA) full-length (FL) was cloned; made in house; host or cells: Tnao38 insect cells (baculovirus, pFL vector)
T1 sequence (P41227 1-235): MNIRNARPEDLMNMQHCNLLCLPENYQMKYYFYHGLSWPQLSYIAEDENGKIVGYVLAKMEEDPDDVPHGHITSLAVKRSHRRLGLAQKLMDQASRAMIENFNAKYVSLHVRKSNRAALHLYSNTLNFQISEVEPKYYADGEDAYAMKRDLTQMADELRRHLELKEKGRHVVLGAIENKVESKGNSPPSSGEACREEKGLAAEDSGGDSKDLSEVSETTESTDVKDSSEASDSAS
T1 sequence (Q9BXJ9 1-866 partner): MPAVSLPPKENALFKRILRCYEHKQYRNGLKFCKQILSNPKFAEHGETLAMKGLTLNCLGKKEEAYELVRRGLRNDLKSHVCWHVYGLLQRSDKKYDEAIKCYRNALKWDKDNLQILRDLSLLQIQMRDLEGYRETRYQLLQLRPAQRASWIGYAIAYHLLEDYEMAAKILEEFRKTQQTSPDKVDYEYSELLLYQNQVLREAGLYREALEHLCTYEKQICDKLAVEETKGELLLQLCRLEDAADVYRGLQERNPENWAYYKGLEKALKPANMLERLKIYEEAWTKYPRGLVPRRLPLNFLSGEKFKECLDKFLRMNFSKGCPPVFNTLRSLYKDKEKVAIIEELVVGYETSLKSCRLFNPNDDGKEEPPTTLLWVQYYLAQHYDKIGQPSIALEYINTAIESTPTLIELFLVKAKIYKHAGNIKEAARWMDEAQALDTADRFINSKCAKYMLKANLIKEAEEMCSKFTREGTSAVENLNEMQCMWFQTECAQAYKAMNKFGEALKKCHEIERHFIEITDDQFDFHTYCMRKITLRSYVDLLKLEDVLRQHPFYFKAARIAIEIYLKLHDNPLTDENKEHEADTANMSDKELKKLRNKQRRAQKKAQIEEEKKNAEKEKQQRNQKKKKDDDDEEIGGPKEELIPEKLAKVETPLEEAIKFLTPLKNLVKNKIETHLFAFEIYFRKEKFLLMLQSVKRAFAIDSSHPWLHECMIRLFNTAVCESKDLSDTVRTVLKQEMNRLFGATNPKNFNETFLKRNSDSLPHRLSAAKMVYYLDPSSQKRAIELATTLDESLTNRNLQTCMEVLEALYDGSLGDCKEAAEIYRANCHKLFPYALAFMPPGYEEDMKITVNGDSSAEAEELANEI
Protocol: Gly-starting proteins can be substrates of the Nt-acetyltransferase NatA[3],[21]. Having established direct DCAF10 binding to Ac-Gly N-termini, we next asked whether SFK N-termini are bona fide NatA substrates. We developed an in vitro Nt-acetylation assay comprising purified NatA, acetyl-CoA (Ac-CoA), and the peptide of interest (Fig. 3a, b)[33]. Acetyl-group transfer was assessed using CPM [7-(diethylamino)−3-(4′-maleimidophenyl)−4-methylcoumarin], which reacts specifically with free thiol groups to produce a highly fluorescent product (excitation: 390 nm; emission: 479 nm), allowing detection of CoA production after acetyl-group transfer to the peptide (Supplementary Fig. 4e). We optimized the conditions to determine Michaelis–Menten kinetics for NatA-mediated Nt-acetylation with a target peptide ([…]) previously used for NatA assays and co-crystallization (Supplementary Fig. 4f)[34]. […] Likely, this was due to a Km even higher than that of Src, and implying that the peptide concentrations in the assay might have been insufficient for the reaction to proceed with an appreciable rate. […] Negative controls (COX17 and Ac-Lyn) produced low signals. […] Given the direct association of NatA with SFK N-termini at the ribosomal exit tunnel, however, we surmise that Nt-acetylation of SFKs in cells may proceed despite these unfavorable kinetic parameters.
The assay was performed essentially as described previously. Briefly, peptide substrates (Supplementary Table 1) were incubated with purified human NatA and acetyl-CoA; acetylation was quantified by CPM fluorescence (CoA detection), and Michaelis–Menten parameters were derived from 8-point 1:1 dilution series within the linear range (n = 4 independent enzymatic assays). Full buffer compositions, reagent concentrations, plate format, instrument settings, controls, and fitting procedures are provided in the Supplementary Methods and Tables. […]
301 Cloning, expression, and purification of human NatA
302 Human NatA (hNatA) full-length (FL) was cloned in a pFL vector expressing both
303 genes, NAA15 with a 6× C-term histidine tag (NAA15-6xHIS) and NAA102. The
304 expression was carried out in insect cells (Tnao38) for 72 h infected 1:20 with
305 baculovirus. Washed cell pellets were lysed by sonication in a lysis buffer containing 200
306 mM NaCl, 50 mM HEPES pH 8.0, 20 mM Imidazole, and 2 mM TCEP. The protein
307 purification was performed as a three-step purification, starting with an affinity nickel
308 column, followed by an ion-exchange column with a gradient of 50–300 mM NaCl, and
309 finished with size exclusion chromatography (SEC) using an S200 10/300 column. The
310 main peaks were collected, and the protein was concentrated in the SEC buffer (150 mM
311 NaCl, 50 mM HEPES pH 8.0, 1 mM EDTA). The purified hNatA was flash-frozen in
312 liquid nitrogen and stored at -80°C.
314 In vitro Nt-acetylation assay
315 The method has been described in detail previously2. Briefly, different peptides
316 (Supplementary Table 1) and concentrations (an eight-step, 1:1 dilution series for
317 Michaelis-Menten curves) as indicated were incubated with 20 nM hNatA and 80 µM Ac-
318 CoA in reaction buffer (50 mM HEPES pH 8.0, 0.5 mM EDTA, 0.005% CHAPS) for 60
319 (Src) or 120 min (Lyn), at RT in a 384-well microplate (Corning 4514) (n = 4).
320 Afterwards, the enzymatic reaction was stopped by adding 1:1 DMSO with 10 µM (final
321 concentration 5 µM) of the thiol reactive CPM (7-Diethylamino-3-
322 (4'Maleimidylphenyl)4-Methylcoumarin). After 1 h at RT, the readout was performed
323 with a Tecan Spark® Multimode Microplate Reader (excitation 390 nm, emission 479
324 nm). Background values at 0 µM peptide were subtracted, and control reactions omitting
325 NatA or Ac-CoA were performed. Dilution series of CoA incubated with 5 µM CPM were
326 used to generate a linear equation (y = 10.99*x + 81.06) to calculate acetylation velocities
327 for NatA-mediated peptide acetylation. […]

[3] = 20 nM NatA, 80 µM Ac-CoA, pH 8.0, RT, 60 min, CPM fluorescence 390/479 nm, mean ± s.d., n = 4, read-out: Km

Substance: GCIAAAGKDSKK [Ac-Lyn^AAA, Ala5-Ala6-Ala7 mutant of Lyn peptide]
- log₂ difference, Ac-Lyn^WT vs Ac-Lyn^AAA, DCAF10 ([1]; HeLa lysate, n = 3): −0.41

- Km [2, 3]: 144 ± 24 µM
- Km ([2]; conclusion: poor NatA substrates, read-out: Km, summary statement): > 100 µM
- Km ([2]; rounded values in Peer Review File, read-out: Km, as given in rebuttal): 143 µM
Substance: GSNKSKPKDAKK [Nt-free Src, Nt-peptide of Src, Nt-free]

- Nt-acetylation by NatA (in words) ([2]; original assay, peptide up to 160 μM): no detectable acetylation
- Nt-acetylation by NatA (in words) ([2]; starting peptide concentration 1 mM): low signals
Substance: PGLVDSNPAPKK [COX17, Pro-starting peptide from COX17, negative control, reference compound]

Substance: GCIKSKENKSKK [Ac-Yes, Nt-peptide of Yes, Nt-acetylated]
- DCAF10 binding (in words) ([1]; HeLa lysate, Nt-Ac vs Nt-free peptides): bound to DCAF10

Substance: PCIKSKGKDSKK [Lyn^G2P, Nt-free Pro mutant Nt-peptide of Lyn]
- DCAF10 binding of Nt-mutant peptides (in words) ([1]; n = 3 replicates): failed to bind DCAF10 in all replicates

- Km [2, 3]: 8.4 ± 1.7 µM
Substance: NatA target peptide: target peptide previously used for NatA assays and co-crystallization (SASEAGVRWG) [reference compound]
